In patent US20230312587A1, “PTERIDINONE COMPOUNDS AND USES THEREOF” (Vertex Pharmaceutical Incorporated, priority 2018, published 2023):

Tested on: β-catenin-TCF-mediated reporter transcription activity in Colo 205 cells
Test: Colo 205 reporter assay (TCF/LEF luciferase)
Type: cell-based
Details: Homo sapiens, COLO 205, 5 h, Colo 205 TCF/LEF luciferase reporter, five hours after addition of compound; read-out: TCF reporter Colo205 IC50
How it was run: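 Luciferase signal from a TCF/LEF-driven reporter, stably integrated in Colo 205 colon cancer cells, was measured 5 h after compound addition.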

| Structure (SMILES) | IC50 [nM] |
| --- | --- |
| Cc1nc(NCc2cnn(C[C@@H](C)c3ccc(F)cc3)c2)nc2c1NC(=O)[C@H](C)N2C [Compound 95, (7S)-2-(((1-((S)-2-(4-fluorophenyl)propyl)-1H-pyrazol-4-yl)methyl)amino)-4,7,8-trimethyl-7,8-dihydropteridin-6(5H)-one] | < 300 |
| Cc1nc(NCc2cnn(-c3cccc(C(F)(F)F)c3)c2)nc2c1NC(=O)[C@H](C)N2C [Compound 97, (7S)-4,7,8-trimethyl-2-(((1-(3-(trifluoromethyl)phenyl)-1H-pyrazol-4-yl)methyl)amino)-7,8-dihydropteridin-6(5H)-one] | < 300 |
| Cc1nc(NCc2cnn(-c3ccc(F)cc3F)c2)nc2c1NC(=O)[C@H](C)N2C [Compound 98, (7S)-2-(((1-(2,4-difluorophenyl)-1H-pyrazol-4-yl)methyl)amino)-4,7,8-trimethyl-7,8-dihydropteridin-6(5H)-one] | 1000 to 5000 |
| Cc1nc(NCc2cnn(C3CCNCC3)c2)nc2c1NC(=O)[C@H](C)N2C [Compound 99, (7S)-4,7,8-Trimethyl-2-(((1-(piperidin-4-yl)-1H-pyrazol-4-yl)methyl)amino)-7,8-dihydropteridin-6(5H)-one] | ≥ 5000 |
| Cc1nc(NCc2cnn([C@H](C)Cc3ccccc3)c2)nc2c1NC(=O)[C@H](C)N2C [Compound 101, (7S)-4,7,8-trimethyl-2-(((1-((R)—1-phenylpropan-2-yl)-1H-pyrazol-4-yl)methyl)amino)-7,8-dihydropteridin-6(5H)-one] | < 300 |
| Cc1nc(NCc2cnn([C@@H](C)Cc3ccccc3)c2)nc2c1NC(=O)[C@H](C)N2C [Compound 102, (7S)-4,7,8-trimethyl-2-(((1-((S)-1-phenylpropan-2-yl)-1H-pyrazol-4-yl)methyl)amino)-7,8-dihydropteridin-6(5H)-one] | 1000 to 5000 |
| Cc1nc(NCc2cnn(CCCc3ccc(F)cc3)c2)nc2c1NC(=O)[C@H](C)N2C [Compound 104, (7S)-2-(((1-(3-(4-fluorophenyl)propyl)-1H-pyrazol-4-yl)methyl)amino)-4,7,8-trimethyl-7,8-dihydropteridin-6(5H)-one] | < 300 |
| Cc1nc(NCc2cnn(CCc3ccc(F)c(F)c3)c2)nc2c1NC(=O)[C@H](C)N2C [Compound 105, (7S)-2-(((1-(3,4-difluorophenethyl)-1H-pyrazol-4-yl)methyl)amino)-4,7,8-trimethyl-7,8-dihydropteridin-6(5H)-one] | < 300 |
| Cc1nc(NCc2cnn(CCc3ccc(F)cc3F)c2)nc2c1NC(=O)[C@H](C)N2C [Compound 106, (7S)-2-(((1-(2,4-difluorophenethyl)-1H-pyrazol-4-yl)methyl)amino)-4,7,8-trimethyl-7,8-dihydropteridin-6(5H)-one] | < 300 |
| Cc1nc(NCc2cnn(CCc3cc(F)cc(F)c3)c2)nc2c1NC(=O)[C@H](C)N2C [Compound 107, (7S)-2-(((1-(3,5-difluorophenethyl)-1H-pyrazol-4-yl)methyl)amino)-4,7,8-trimethyl-7,8-dihydropteridin-6(5H)-one] | < 300 |
| CCOc1ccc(CCn2cc(CNc3nc(C)c4c(n3)N(C)[C@@H](C)C(=O)N4)cn2)cc1 [Compound 108, (7S)-2-(((1-(4-ethoxyphenethyl)-1H-pyrazol-4-yl)methyl)amino)-4,7,8-trimethyl-7,8-dihydropteridin-6(5H)-one] | 300 to 1000 |
| C[C@H]1C(=O)Nc2cnc(NCc3cnn(CCOc4ccc(F)cc4)c3)nc2N1C [Compound 109, (7S)-2-(((1-(2-(4-fluorophenoxy)ethyl)-1H-pyrazol-4-yl)methyl)amino)-7,8-dimethyl-7,8-dihydropteridin-6(5H)-one] | 1000 to 5000 |
| C[C@H]1C(=O)Nc2cnc(NCc3cnn(CCCc4ccc(F)cc4)c3)nc2N1C [Compound 110, (7S)-2-(((1-(3-(4-fluorophenyl)propyl)-1H-pyrazol-4-yl)methyl)amino)-7,8-dimethyl-7,8-dihydropteridin-6(5H)-one] | 300 to 1000 |
| C[C@H]1C(=O)Nc2cnc(NCc3cnn(CCc4ccc(F)c(F)c4)c3)nc2N1C [Compound 111, (7S)-2-(((1-(3,4-difluorophenethyl)-1H-pyrazol-4-yl)methyl)amino)-7,8-dimethyl-7,8-dihydropteridin-6(5H)-one] | 300 to 1000 |
| Cc1nc(NCc2cnn(C3CCc4ccc(F)cc43)c2)nc2c1NC(=O)[C@H](C)N2C (stereo partly drawn) [Compound 117, (7S)-2-(((1-(6-fluoro-2,3-dihydro-1H-inden-1-yl)-1H-pyrazol-4-yl)methyl)amino)-4,7,8-trimethyl-7,8-dihydropteridin-6(5H)-one] | < 300 |
| Cc1nc(NCc2cnn(C3CCOCC3)c2)nc2c1NC(=O)[C@H](C)N2C [Compound 118, (7S)-4,7,8-trimethyl-2-(((1-(tetrahydro-2H-pyran-4-yl)-1H-pyrazol-4-yl)methyl)amino)-7,8-dihydropteridin-6(5H)-one] | ≥ 5000 |

| Structure (SMILES) | IC50 [nM] |
| --- | --- |
| C[C@H]1C(=O)Nc2cnc(NCc3cnn(CCc4ccc(F)cc4F)c3)nc2N1C [Compound 119, (7S)-2-(((1-(2,4-difluorophenethyl)-1H-pyrazol-4-yl)methyl)amino)-7,8-dimethyl-7,8-dihydropteridin-6(5H)-one] | 1000 to 5000 |
| C[C@H]1C(=O)Nc2cnc(NCc3cnn(CCc4cc(F)cc(F)c4)c3)nc2N1C [Compound 120, (7S)-2-(((1-(3,5-difluorophenethyl)-1H-pyrazol-4-yl)methyl)amino)-7,8-dimethyl-7,8-dihydropteridin-6(5H)-one] | 300 to 1000 |
| Cc1nc(NCc2cnn(CCc3cc(F)c(F)c(F)c3)c2)nc2c1NC(=O)[C@H](C)N2C [Compound 123, (7S)-4,7,8-trimethyl-2-(((1-(3,4,5-trifluorophenethyl)-1H-pyrazol-4-yl)methyl)amino)-7,8-dihydropteridin-6(5H)-one] | < 300 |
| Cc1nc(NCc2cnn(C3CCN(C(=O)c4cc(F)c(F)c(F)c4)CC3)c2)nc2c1NC(=O)[C@H](C)N2C [Compound 124, (7S)-4,7,8-Trimethyl-2-(((1-(1-(3,4,5-trifluorobenzoyl)piperidin-4-yl)-1H-pyrazol-4-yl)methyl)amino)-7,8-dihydropteridin-6(5H)-one] | 300 to 1000 |
| Cc1nc(NCc2ccc(Nc3cnn(CC(F)(F)F)c3)nc2)nc2c1NC(=O)[C@H](C)N2C [Compound 126, (7S)-4,7,8-trimethyl-2-(((6-((1-(2,2,2-trifluoroethyl)-1H-pyrazol-4-yl)amino)pyridin-3-yl)methyl)amino)-7,8-dihydropteridin-6(5H)-one] | 1000 to 5000 |
| Cc1nc(NCc2cnn([C@@H]3CCN(C4CCC(F)(F)CC4)C3)c2)nc2c1NC(=O)[C@H](C)N2C [Compound 127, (7S)-2-(((1-((R)-1-(4,4-difluorocyclohexyl)pyrrolidin-3-yl)-1H-pyrazol-4-yl)methyl)amino)-4,7,8-trimethyl-7,8-dihydropteridin-6(5H)-one] | 300 to 1000 |
| Cc1nc(NCc2cnn(Cc3ccc(OC(C)C)nc3)c2)nc2c1N(C)C(=O)[C@H](C)N2C [Compound 129, (7S)-2-(((1-((6-isopropoxypyridin-3-yl)methyl)-1H-pyrazol-4-yl)methyl)amino)-4,5,7,8-tetramethyl-7,8-dihydropteridin-6(5H)-one] | 300 to 1000 |
| Cc1nc(NCc2cnn(C3CCN(c4ccc(F)cc4)CC3)c2)nc2c1NC(=O)[C@H](C)N2C [Compound 130, (7S)-2-(((1-(1-(4-fluorophenyl)piperidin-4-yl)-1H-pyrazol-4-yl)methyl)amino)-4,7,8-trimethyl-7,8-dihydropteridin-6(5H)-one] | ≥ 5000 |
| Cc1nc(NCc2cnn(C[C@@H](O)c3ccc(F)cc3)c2)nc2c1NC(=O)[C@H](C)N2C [Compound 131, (7S)-2-[[1-[(2S)-2-(4-fluorophenyl)-2-hydroxy-ethyl]pyrazol-4-yl]methylamino]-4,7,8-trimethyl-5,7-dihydropteridin-6-one] | 1000 to 5000 |
| Cc1nc(NCc2cnn(C[C@H](O)c3ccc(F)cc3)c2)nc2c1NC(=O)[C@H](C)N2C [Compound 132, (7S)-2-[[1-[(2R)-2-(4-fluorophenyl)-2-hydroxy-ethyl]pyrazol-4-yl]methylamino]-4,7,8-trimethyl-5,7-dihydropteridin-6-one] | 300 to 1000 |
| Cc1nc(NCc2cnn(CCC3CCCC3)c2)nc2c1NC(=O)[C@H](C)N2C [Compound 133, (7S)-2-(((1-(2-cyclopentylethyl)-1H-pyrazol-4-yl)methyl)amino)-4,7,8-trimethyl-7,8-dihydropteridin-6(5H)-one] | < 300 |
| Cc1nc(NCc2cnn(CC3CC4CCC3C4)c2)nc2c1NC(=O)[C@H](C)N2C (stereo partly drawn) [Compound 134, (7S)-2-(((1-(bicyclo[2.2.1]heptan-2-ylmethyl)-1H-pyrazol-4-yl)methyl)amino)-4,7,8-trimethyl-7,8-dihydropteridin-6(5H)-one] | < 300 |
| Cc1nc(NCc2cnn(C3CCC(c4ccc(F)cc4)C3)c2)nc2c1NC(=O)[C@H](C)N2C (stereo partly drawn) [Compound 137, (7S)-2-(((1-(3-(4-fluorophenyl)cyclopentyl)-1H-pyrazol-4-yl)methyl)amino)-4,7,8-trimethyl-7,8-dihydropteridin-6(5H)-one] | < 300 |
| Cc1nc(NCc2cnn(Cc3ccc(F)c(F)c3)c2)nc2c1NC(=O)[C@H](C)N2C [Compound 140, (7S)-2-(((1-(3,4-difluorobenzyl)-1H-pyrazol-4-yl)methyl)amino)-4,7,8-trimethyl-7,8-dihydropteridin-6(5H)-one] | < 300 |
| C[C@H]1C(=O)Nc2cnc(NCc3cnn(Cc4ccc(F)c(F)c4)c3)nc2N1C [Compound 141, (7S)-2-(((1-(3,4-difluorobenzyl)-1H-pyrazol-4-yl)methyl)amino)-7,8-dimethyl-7,8-dihydropteridin-6(5H)-one] | < 300 |
| COc1ccc(Cn2cc(CNc3nc(C)c4c(n3)N(C)[C@@H](C)C(=O)N4)cn2)cc1F [Compound 146, (7S)-2-(((1-(3-fluoro-4-methoxybenzyl)-1H-pyrazol-4-yl)methyl)amino)-4,7,8-trimethyl-7,8-dihydropteridin-6(5H)-one] | < 300 |
